Reference: ChEMBL document CHEMBL3137667, “[Drug-induced liver injury; fourteenth updated edition of the bibliographic database of liver injuries and related drugs]” (Gastroenterol Clin Biol, 2004)

How the values were obtained:
[1] = Highest frequency of acute liver toxicity observed during clinical trials, expressed as a percentage. [column '% AIGUE' in source]; conditions: human
[2] = human
[3] = human; remark: listed apart in the source
[4] = human, serum
[5] = Highest frequency of moderate liver toxicity observed during clinical trials, expressed as a percentage. [column '% BIOL' in source]; conditions: human
[6] = human; remark: listed apart in the source
[7] = human; remark: listed apart in the source
[8] = human; remark: listed apart in the source
[9] = human; remark: listed apart in the source
[10] = human, serum; remark: listed apart in the source
[11] = human, serum, 4383 h
[12] = human; remark: listed apart in the source
[13] = human; remark: listed apart in the source
[14] = human; remark: listed apart in the source
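Throughout, for Hepatotoxicity (association with vascular disease): count of indexed literature references reporting vascular liver injury in humans, e.g. peliosis hepatitis, hepatic veno-occlusive disease or Budd-Chiari syndrome.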
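Throughout, for Hepatotoxicity (benign tumour): value is a count of indexed literature references citing a benign tumour confirmed by histopathology.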
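Throughout, for Hepatotoxicity (choleostasis): human cholestatic liver injury, shown by histopathology or by peak ALT or AST elevation over alkaline phosphatase ratio below 2, value counts indexed literature reports.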
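Throughout, for Hepatotoxicity (chronic liver disease): chronic liver injury confirmed by histopathology or persistently raised serum aminotransferase activity beyond 6 months, value given as the count of indexed literature references.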
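Throughout, for Hepatotoxicity (cirrhosis): value is a count of indexed literature references reporting cirrhosis confirmed by histopathology.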
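Throughout, for Hepatotoxicity (cytolytic): human cytolytic liver injury, shown by histopathology or by a ratio above 5 of peak ALT or AST elevation to alkaline phosphatase elevation, value counts indexed references.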
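Throughout, for Hepatotoxicity (granulomatous hepatitis): value is a count of indexed literature references reporting granulomatous liver disease confirmed by histopathology.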
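Throughout, for Hepatotoxicity (malignant tumour): malignant tumour confirmed by histopathology, value gives the count of indexed literature references reporting it.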
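Throughout, for Hepatotoxicity (severe hepatitis): human clinical data: severe hepatitis, meaning potentially life-threatening liver failure or clinically observed cases, the value counts how many indexed literature references report it.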
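Throughout, for Hepatotoxicity (steatosis): steatosis confirmed by histopathology, value is the count of indexed references.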

| SMILES | Hepatotoxicity (acute) [1] [%] | Hepatotoxicity (association with vascular disease) [2] | Hepatotoxicity (cytolytic) [3] | Hepatotoxicity (acute) [4] | Hepatotoxicity (moderate) [5] [%] | Hepatotoxicity (choleostasis) [6] | Hepatotoxicity (cirrhosis) [7] | Hepatotoxicity (steatosis) [8] | Hepatotoxicity (severe hepatitis) [9] | Hepatotoxicity (moderate) [10] | Hepatotoxicity (chronic liver disease) [11] | Hepatotoxicity (malignant tumour) [12] | Hepatotoxicity (benign tumour) [13] | Hepatotoxicity (granulomatous hepatitis) [14] | Hepatotoxicity (acute) ([1]; Liver) [%] | Hepatotoxicity (cytolytic) ([3]; Liver) | Hepatotoxicity (moderate) ([5]; Liver) [%] | Hepatotoxicity (choleostasis) ([6]; Liver) | Hepatotoxicity (severe hepatitis) ([9]; Liver) | Hepatotoxicity (granulomatous hepatitis) ([14]; Liver) |
| --- | --- | --- | --- | --- | --- | --- | --- | --- | --- | --- | --- | --- | --- | --- | --- | --- | --- | --- | --- | --- |
| C/N=C(/Cc1ccc2ccccc2c1)NC [NAPACTADINE] | 0 | 0 | 0 | 0 | 0 | 0 | 0 | 0 | 0 | 1 | 0 | 0 | 0 | 0 | – | – | – | – | – | – |
| CC1CN(c2cc3c(cc2F)c(=O)c(C(=O)O)cn3-c2ccc(F)cc2F)CCN1 (stereo not drawn) [TEMAFLOXACIN] | 0 | 0 | 0 | 0 | 44.4 | 0 | 0 | 0 | 0 | 33 | 0 | 0 | 0 | 0 | – | – | – | – | – | – |
| Cc1c(F)c(N2CCNC(C)C2)cc2c1c(=O)c(C(=O)O)cn2C1CC1 (stereo not drawn) [GREPAFLOXACIN] | – | 0 | – | 0 | – | – | 0 | 0 | – | 22 | 0 | 0 | 0 | – | 0 | 0 | 14.3 | 0 | 0 | 0 |
| COc1ccc(C(=O)Nc2ccccc2CCC2CCCCN2C)cc1 (stereo not drawn) [ENCAINIDE] | 0 | 0 | 0 | 1 | 0 | 0 | 0 | 0 | 0 | 0 | 0 | 0 | 0 | 0 | – | – | – | – | – | – |
| O=C(Nc1cccc2c(=O)cc(-c3nnn[nH]3)oc12)c1ccc(OCCCCc2ccccc2)cc1 | 0 | 0 | 0 | 0 | 2.1 | 0 | 0 | 0 | 0 | 1 | 0 | 0 | 0 | 0 | – | – | – | – | – | – |
| CCOC(=O)NC1=C(N2CC2)C(=O)C(NC(=O)OCC)=C(N2CC2)C1=O [DIAZIQUONE] | 0 | 0 | 0 | 0 | 50 | 0 | 0 | 0 | 0 | 5 | 0 | 0 | 0 | 0 | – | – | – | – | – | – |
| O=C(O)C1=C(C[n+]2ccc(CCS(=O)(=O)[O-])cc2)CS[C@@H]2[C@H](NC(=O)[C@H](NC(=O)c3[nH]cnc3C(=O)O)c3ccccc3)C(=O)N12 [CEFPIMIZOLE] | 0 | 0 | 0 | 0 | 18.8 | 0 | 0 | 0 | 0 | 30 | 0 | 0 | 0 | 0 | – | – | – | – | – | – |
| CC1(C)CC(=O)N(CCCCN2CCN(c3ncccn3)CC2)C(=O)C1 [GEPIRONE] | 0 | 0 | 0 | 0 | 3.3 | 0 | 0 | 0 | 0 | 1 | 0 | 0 | 0 | 0 | – | – | – | – | – | – |
| CCn1cc(C(=O)O)c(=O)c2cnc(N3CCNCC3)nc21 [PIPEMIDIC ACID] | 0 | 0 | 0 | 0 | 0 | 0 | 0 | 0 | 0 | 1 | 0 | 0 | 0 | 0 | – | – | – | – | – | – |
| CO[C@H]1/C=C/O[C@@]2(C)Oc3c(C)c(O)c4c(O)c(c5c(nc6cc(C)ccn65)c4c3C2=O)NC(=O)/C(C)=C\C=C\[C@H](C)[C@H](O)[C@@H](C)[C@@H](O)[C@@H](C)[C@H](OC(C)=O)[C@@H]1C [RIFAXIMIN] | 0 | 0 | 0 | 0 | 26.7 | 0 | 0 | 0 | 0 | 27 | 0 | 0 | 0 | 0 | – | – | – | – | – | – |
| CO[C@@H]1C[C@](C)(O)Cc2cc3c(c(O)c21)C(=O)c1c(O)cc2c(c1C3=O)O[C@@H]1O[C@@]2(C)[C@H](O)[C@@H](N(C)C)[C@@H]1O [MENOGARIL] | 0 | 0 | 0 | 0 | 16.7 | 0 | 0 | 0 | 0 | 4 | 0 | 0 | 0 | 0 | – | – | – | – | – | – |
| CC(NN)c1ccccc1 (stereo not drawn) [MEBANAZINE] | 0 | 0 | 0 | 0 | 9 | 0 | 0 | 0 | 0 | 1 | 0 | 0 | 0 | 0 | – | – | – | – | – | – |
